IC50 data for one compound are collected here from US5087614A, “Enzyme inhibitor and method of producing the same” (Suntory Limited, priority 1987, dated 1992).

In the test the target is T1, Pepsin (Bos taurus, UniProt P00792).
T1 construct: from tissue; host or cells: bovine pancreas (so in the source)
The test can be described thus: Inhibition against pepsin (hemoglobin degradation, UV absorption at 280 nm). Type of test: biochemical, Bovine. The note with it: substrate 2.0% hemoglobin in 0.06N-hydrochloric acid, 35° C., 10 minutes; read-out: IC50 (concentration of the compound required to achieve 50% inhibition).

Molecules are shown by their SMILES. Where a SMILES comes first, the peptide text is derived from it. [ ]: non-standard residue; d: D form. The star is where a group is joined. Sta = CC(C)C[C@H](N)[C@@H](O)CC(=O)O; Isovaleryl = CC(C)CC(=O)*

T1 sequence (P00792 43-372): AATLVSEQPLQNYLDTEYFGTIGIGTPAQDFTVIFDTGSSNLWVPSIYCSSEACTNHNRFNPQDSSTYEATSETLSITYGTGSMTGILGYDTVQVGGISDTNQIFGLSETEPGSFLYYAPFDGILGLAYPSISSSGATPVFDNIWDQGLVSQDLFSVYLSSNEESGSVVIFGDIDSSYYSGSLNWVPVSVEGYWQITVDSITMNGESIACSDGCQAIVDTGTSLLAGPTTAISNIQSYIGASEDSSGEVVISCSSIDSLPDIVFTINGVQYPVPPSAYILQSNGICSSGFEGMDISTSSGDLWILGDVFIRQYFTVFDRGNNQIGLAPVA
Method: (a) Inhibition against Pepsin from Bovine Pancreas
To this mixture was added (150-a) μl of 0.06N-hydrochloric acid to adjust the pH value of the mixture to 3 to 5. Each of the solutions was then mixed with a substrate solution to start the reaction. The substrate for the reaction comprised 2.0% hemoglobin in 800 μl of 0.06N-hydrochloric acid and the reaction was conducted at 35° C. for 10 minutes, the total volume of the reaction mixture being 1 ml. 3 ml of 5% trichloroacetic acid was then added to the reaction mixture to terminate the reaction. After the precipitates formed had been filtered off, the amount of protein in the trichloroacetic acid fraction which contained the components of hemoglobin hydrolyzed with pepsin was measured from the value of ultraviolet absorption at 280 nm.

On to `CC(C)CC(=O)N[C@H](C(=O)N[C@H](C(=O)N[C@@H](CC(C)C)[C@@H](O)CC(=O)N[C@@H](C)C(=O)N[C@@H](CC(C)C)[C@@H](O)CC(=O)O)C(C)C)C(C)C` [Pepstatin] (Isovaleryl-VV[Sta]A[Sta]-OH), for which the IC50 turned out to be 18.3 nM.
